The text below walks through data of patent publication EP2878677A1, “Activators of protein phosphatase 5” (Deutsches Zentrum für Neurodegenerative Erkrankungen e.V. …, priority 2013, dated 2015).

For one test, the target named is T1, PP5 (Rattus norvegicus, UniProt P53042).
T1 construct: The full-length PP5 and its deletion variants were purified and the activity was determined; made in house; host or cells: E. coli BL21-CodonPlus (DE3)-RIL
T1 sequence (P53042 1-499): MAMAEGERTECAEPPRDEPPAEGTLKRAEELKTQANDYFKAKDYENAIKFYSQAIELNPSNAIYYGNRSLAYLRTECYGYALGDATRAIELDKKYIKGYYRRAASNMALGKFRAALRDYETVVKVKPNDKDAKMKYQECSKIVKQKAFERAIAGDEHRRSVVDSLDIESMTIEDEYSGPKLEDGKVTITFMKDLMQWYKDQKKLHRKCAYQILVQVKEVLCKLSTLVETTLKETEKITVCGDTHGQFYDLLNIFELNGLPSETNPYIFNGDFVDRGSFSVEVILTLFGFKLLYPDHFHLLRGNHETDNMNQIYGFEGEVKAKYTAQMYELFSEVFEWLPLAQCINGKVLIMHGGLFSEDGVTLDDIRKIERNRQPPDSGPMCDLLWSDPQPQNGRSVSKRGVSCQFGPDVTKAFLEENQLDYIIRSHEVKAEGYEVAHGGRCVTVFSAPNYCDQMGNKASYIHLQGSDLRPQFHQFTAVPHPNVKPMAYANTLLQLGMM
Description: pNPP-based phosphatase assay with full-length mammalian PP5. Type of test: biochemical. The method, then:
Cloning and purification of PPH-5, Hsp90/DAF-21, CDC-37, YFP-Hsp90/DAF-21 were performed as described before (Gaiser et al., 2009; Gaiser et al., 2011; Gaiser et al., 2010). The purified human phosphatases PP1, PP2A and PP2B/PP3 were purified as described (Baumgrass et al., 2001; Mondragon et al., 1997; Tung et al., 1985). The expression clones of mammalian PP5, PP5-ΔN165 (166-499) and PP5-ΔC8 (1-491) were generated by PCR from plasmid-DNA containing full-length PP5 from Rattus norvegicus. PCR-products were inserted into the pET28b expression plasmid (Merck, Darmstadt, Germany) and verified by DNA sequencing (GATC Biotech, Konstanz, Germany). Proteins were expressed in BL21-CodonPlus (DE3)-RIL bacteria (Stratagene, LaJolla, USA). Bacterial cultures were grown to an OD600 of 0.8 and induced with 1 mM IPTG. Cells were disrupted using a cell disruption machine (IUL Instruments, Freiburg, Germany) and the lysate was loaded onto a HisTrap FF column (GE Healthcare, Freiburg, Germany). Protein was eluted in a buffer containing 400 mM imidazole. Eluted protein was dialyzed and applied to a ResourceQ anion exchange column (GE Healthcare, Freiburg, Germany). Finally, proteins were subjected to size exclusion chromatography on Superdex 200 PrepGrade gel filtration columns (GE Healthcare, Freiburg, Germany). Protein purity was assessed by SDS-PAGE and the molecular mass was determined by a MALDI-TOF/TOF mass spectrometer (Bruker, Bremen, Germany). Proteins were frozen in liquid nitrogen in 40 mM HEPES/KOH, pH 7.5, 20 mM KCl, 1 mM DTT and stored at -80 °C.
Phosphatase activity was followed by the conversion of para-nitrophenyl phosphate (pNPP) to para-nitophenole and absorption of the product at 410 nm (ε: 15100 cm^-1 M^-1) in a Varian Cary 100 spectrophotometer (Agilent Technologies, Boeblingen, Germany). The reaction was measured in 40 mM HEPES/KOH, 20 mM KCl, 5 mM MnCl2, 1 mM DTT, pH 7.5 and 60 mM pNPP at 20 °C if not indicated otherwise. Phosphatase concentration ranged from 50 to 500 nM in the assay. If indicated, Hsp90/DAF-21 peptide was supplemented in the assay at a concentration of 60 µM.
For characterization of the binding site of the P5SAs, deletion constructs of rat PP5 were generated. […] The full-length PP5 and its deletion variants were purified and the activity was determined in the absence and presence of 10 µM and 100 µM (45 µM in case of P5SA-5) of the substances, respectively (Figure 3A-C).

The target in the next test is T2, Hsp90/DAF-21 (Caenorhabditis elegans, UniProt Q18688).
T2 construct: made in house
As to the kind of experiment: coupled regenerative ATPase assay. The format is biochemical, C. elegans. The settings on record: concentrations well above the KD; also with AHA-1; 30 °C. The method, then:
(§1) ATPase activity can be measured as described in Gaiser et al., 2009 with an ATPase assay that is carried out as a regenerative assay, wherein ADP produced during the ATPase reaction is recycled to ATP with the help of lactate dehydrogenase, NADH, phosphoenolpyruvate and pyruvate kinase. This changes the absorbance at 340 nm, when NADH is oxidized to NAD^+, giving a sensitive signal for the determination of activity. The change in absorbance at 340 nm that occurs during oxidizing of NADH to NAD^+ is measured by spectroscopic measures. Preferably, said in vitro ATPase assay is carried out at 30 °C. Preferably, said in vitro ATPase assay is carried out in the presence of 3 µM or the chaperone protein. Preferably the concentration of each of the cochaperones present is 5 µM. Preferably, the chaperones and cochaperones used are bacterially expressed proteins.
(§2) The activity of the ATPases Hsc70/HSP-1 and Hsp90/DAF-21 were assessed in a coupled regenerative ATPase assay as described before (Gaiser et al., 2009). Reactions were measured in a Varian Cary 100 spectrophotometer (Agilent Technologies, Boeblingen, Germany) at 30 °C and the depletion of NADH was followed at 340 nm. Chaperone concentration was 3 µM and cochaperones were added, when indicated, at a concentration of 5 µM.

In another test the target is T3, Hsc70/HSP-1 (Caenorhabditis elegans, UniProt P09446).
T3 construct: made in house; host or cells: bacteria
Description: coupled regenerative ATPase assay. Type of test: biochemical, C. elegans. The conditions noted are these: concentrations well above the KD; also with BAG-1 and DNJ-13; 30 °C. Here is the method: as §1, §2

T3 sequence (P09446 whole entry): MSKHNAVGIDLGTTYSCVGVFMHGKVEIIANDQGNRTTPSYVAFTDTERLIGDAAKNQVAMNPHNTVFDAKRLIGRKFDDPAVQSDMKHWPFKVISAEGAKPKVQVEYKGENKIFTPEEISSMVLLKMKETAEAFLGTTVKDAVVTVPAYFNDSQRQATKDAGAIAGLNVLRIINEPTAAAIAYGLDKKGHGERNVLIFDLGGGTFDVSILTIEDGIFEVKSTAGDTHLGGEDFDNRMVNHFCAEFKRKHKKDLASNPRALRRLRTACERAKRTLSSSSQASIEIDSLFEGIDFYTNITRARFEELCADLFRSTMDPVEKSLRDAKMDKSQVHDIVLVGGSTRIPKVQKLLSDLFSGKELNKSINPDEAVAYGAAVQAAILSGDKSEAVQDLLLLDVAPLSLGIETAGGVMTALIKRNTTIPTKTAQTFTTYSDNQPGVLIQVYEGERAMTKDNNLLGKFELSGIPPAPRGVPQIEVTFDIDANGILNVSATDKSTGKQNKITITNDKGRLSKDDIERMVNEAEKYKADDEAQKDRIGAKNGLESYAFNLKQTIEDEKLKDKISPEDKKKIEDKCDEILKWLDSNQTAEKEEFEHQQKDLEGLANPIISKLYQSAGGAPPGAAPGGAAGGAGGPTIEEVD

`FC(F)(F)c1c2c(nc3c(-c4ccc(Cl)cc4)cnn13)CCC2` [P5SA-1] came in with a fold activation at PP5 (at 143 µM) of 2.7 fold. On Hsp90/DAF-21, the “ATPase activity of Hsp90/DAF-21” value was “no effect”. The “ATPase activity of Hsc70/HSP-1” value on Hsc70/HSP-1 is “no additional effect”.
Turning to `COc1ccc(-c2nc(Cc3ccc(Cl)cc3)no2)cc1OC` [P5SA-2], on PP5 (at 714 µM), the fold activation turned out to be 13.7 fold. In addition, at Hsp90/DAF-21, the “ATPase activity of Hsp90/DAF-21” value is “no effect”. Further, the “ATPase activity of Hsc70/HSP-1” value on Hsc70/HSP-1 is recorded as “no additional effect”.
Turning to `CN1CCc2c(sc(-n3cccc3)c2CNC(=O)NC23CC4CC(CC(C4)C2)C3)C1` [P5SA-3], the fold activation on PP5 (at 714 µM) is 7.0 fold.
As for `O=c1cc2nc(-c3ccc(F)cc3)nc(SCc3ccc(Br)cc3)n2[nH]1` [P5SA-4], at PP5 (at 143 µM), the fold activation was 16.4 fold. Also, on Hsp90/DAF-21, the “ATPase activity of Hsp90/DAF-21” value is “no effect”. In addition, the “ATPase activity of Hsc70/HSP-1” value at Hsc70/HSP-1 was “no additional effect”.
`CNC(=O)c1c(NC(=O)COCC(=O)Nc2sc3c(c2C(=O)NC)CCC3)sc2c1CCC2` [P5SA-5] gave a fold activation on PP5 (at 45 µM) of 22.1 fold. Further, on PP5 (rat PP5, read-out: binding constant (affinity towards the mammalian protein)), the Kd worked out at 10 ± 5 µM. At Hsp90/DAF-21, the “ATPase activity of Hsp90/DAF-21” value was “no effect”. Further, the “ATPase activity of Hsc70/HSP-1” value at Hsc70/HSP-1 is “no additional effect”.
